Experimental data taken from patent US20260015350A1, “AZAQUINAZOLINE PAN-KRAS INHIBITORS” (Mirati Therapeutics, Inc., priority 2022, published 2026).

Tests used:
[1] = tested on: KRas-mediated phosphorylation of ERK in H358 cells; assay: Inhibition of KRas-mediated phosphorylation of ERK (Cisbio HTRF pERK), H358 cells; type: cell-based; details: Homo sapiens, NCI-H358, HTRF pERK
Procedure, shortened: (§1)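 Using 6,000 cells per well, compounds are applied for 3 hrs and cells then lysed at 4° C with shaking for 40 mins. Phospho-ERK is measured by HTRF after 2 hrs of lysate incubation with the d2/Cryptate antibody mixture.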

KRas^G12V = target: T1, KRas^G12V (Homo sapiens, UniProt P01116, G12V); assay: KRas binding assay (TR-FRET tracer displacement), KRas G12V
T1 construct: Biotinylated KRas (corresponding to amino acids 1-169, produced at Accelegan Inc.); biotin (biotinylated); purchased Accelegan Inc
T1 sequence (P01116 1-169 isoform P01116-2 G12V): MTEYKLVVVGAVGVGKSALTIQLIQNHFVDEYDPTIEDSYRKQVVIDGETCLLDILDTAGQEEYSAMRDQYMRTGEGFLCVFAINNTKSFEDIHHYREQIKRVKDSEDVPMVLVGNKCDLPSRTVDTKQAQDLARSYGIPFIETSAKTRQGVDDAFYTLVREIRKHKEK

[2] = tested on: KRas-mediated phosphorylation of ERK in H460 cells; assay: Inhibition of KRas-mediated phosphorylation of ERK (Cisbio HTRF pERK), H460 cells; type: cell-based; details: Homo sapiens, NCI-H460, HTRF pERK
Procedure, shortened: as §1

[3] = tested on: KRas-mediated phosphorylation of ERK in A549 cells; assay: Inhibition of KRas-mediated phosphorylation of ERK (Cisbio HTRF pERK), A549 cells; type: cell-based; details: Homo sapiens, HTRF pERK
Procedure, shortened: (§2)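 A cell-based HTRF pERK assay: ten-point, threefold titrations beginning at 10 uM were applied for 3 hrs, with 0.2 uM Trametinib wells as the minimum control. Cells were lysed cold, and lysate was incubated with the antibody pair for 2 hrs before reading.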

[4] = tested on: KRas-mediated phosphorylation of ERK in HCT116 cells; assay: Inhibition of KRas-mediated phosphorylation of ERK (Cisbio HTRF pERK), HCT116 cells; type: cell-based; details: Homo sapiens, HCT-116, HTRF pERK
Procedure, shortened: as §2

[5] = tested on: KRas-mediated phosphorylation of ERK in H727 cells; assay: Inhibition of KRas-mediated phosphorylation of ERK (Cisbio HTRF pERK), H727 cells; type: cell-based; details: Homo sapiens, NCI-H727, H727 cells; HTRF pERK
Procedure, shortened: as §1

KRas^G12D = target: T2, KRas^G12D (Homo sapiens, UniProt P01116, G12D); assay: KRas binding assay (TR-FRET tracer displacement), KRas G12D
T2 construct: Biotinylated KRas (corresponding to amino acids 1-169, produced at Accelegan Inc.); biotin (biotinylated); purchased Accelegan Inc
T2 sequence (P01116 1-169 isoform P01116-2 G12D): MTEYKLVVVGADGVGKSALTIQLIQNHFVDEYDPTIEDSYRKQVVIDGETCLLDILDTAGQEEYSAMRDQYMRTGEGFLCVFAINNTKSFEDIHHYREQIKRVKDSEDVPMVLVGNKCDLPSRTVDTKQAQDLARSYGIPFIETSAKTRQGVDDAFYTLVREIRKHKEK

[6] = tested on: KRas-mediated phosphorylation of ERK in MKN1 cells; assay: Inhibition of KRas-mediated phosphorylation of ERK (Cisbio HTRF pERK), MKN1 cells; type: cell-based; details: Homo sapiens, MKN-1
Procedure, shortened: (§3)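 Overnight culture at 37° C./5% CO2 in RPMI containing 10% FBS, seeded 6,000 cells per well, preceded the assay. A covered 4-hour incubation at room temperature followed, then HTRF signal for phosphorylated ERK was measured.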

[7] = tested on: KRas-mediated phosphorylation of ERK in PSN1 cells; assay: Inhibition of KRas-mediated phosphorylation of ERK (Cisbio HTRF pERK), PSN1 cells; type: cell-based; details: Homo sapiens
Procedure, shortened: as §3

KRas^G12R = target: T3, KRas^G12R (Homo sapiens, UniProt P01116, G12R); assay: KRas binding assay (TR-FRET tracer displacement), KRas G12R
T3 construct: Biotinylated KRas (corresponding to amino acids 1-169, produced at Accelegan Inc.); biotin (biotinylated); purchased Accelegan Inc
T3 sequence (P01116 1-169 isoform P01116-2 G12R): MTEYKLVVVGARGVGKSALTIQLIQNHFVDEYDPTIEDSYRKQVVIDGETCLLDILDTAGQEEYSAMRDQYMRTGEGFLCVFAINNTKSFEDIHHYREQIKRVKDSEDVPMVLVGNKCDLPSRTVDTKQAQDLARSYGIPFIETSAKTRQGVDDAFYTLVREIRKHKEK

[8] = tested on: KRas-mediated phosphorylation of ERK in AsPC-1 cells; assay: Inhibition of KRas-mediated phosphorylation of ERK (Cisbio HTRF pERK), AsPC-1 cells; type: cell-based; details: Homo sapiens, ASPC1, AsPC-1 cells; HTRF pERK
Procedure, shortened: as §1

| IC50 [1] [nM] | IC50 (KRas^G12V) [nM] | IC50 [2] [nM] | IC50 [3] [nM] | IC50 [4] [nM] | IC50 [5] [nM] | IC50 (KRas^G12D) [nM] | IC50 [6] [nM] | IC50 [7] [nM] | IC50 (KRas^G12R) [nM] | IC50 [8] [nM] | Compound |
| --- | --- | --- | --- | --- | --- | --- | --- | --- | --- | --- | --- |
| 121 | 3 | 167 | 212 | 345 | 347 | 3 | 61 | > 10000 | 8 | 135 | CCc1c(F)ccc2cc(O)cc(-c3ncc4c(N5CCC[C@@](C)(O)C5)nc(OCC5(CN(C)C)C(C)C5C)nc4c3F)c12 (stereo partly drawn) [Example 818, (3R)-1-(2-((1-((dimethylamino)methyl)-2,3-dimethylcyclopropyl)methoxy)-7-(8-ethyl-7-fluoro-3-hydroxynaphthalen-1-yl)-8-fluoropyrido[4,3-d]pyrimidin-4-yl)-3-methylpiperidin-3-ol] |
| 69 | 4 | 136 | 143 | 502 | 174 | 11 | 167 | > 10000 | 8 | 165 | CCc1c(F)ccc2cc(O)cc(-c3ncc4c(N5CC6CCC(C(=O)N(C)C)(C6)C5)nc(OC[C@@]56CCCN5C[C@H](F)C6)nc4c3F)c12 (stereo partly drawn) [Example 824, 3-(7-(8-ethyl-7-fluoro-3-hydroxynaphthalen-1-yl)-8-fluoro-2-(((2R,7aS)-2-fluorotetrahydro-1H-pyrrolizin-7a(5H)-yl)methoxy)pyrido[4,3-d]pyrimidin-4-yl)-N,N-dimethyl-3-azabicyclo[3.2.1]octane-1-carboxamide] |
| 50 | < 2 | 98 | 83 | 369 | 56 | 6 | 36 | 5920 | 3 | 180 | CCc1c(F)ccc2cc3[nH]ncc3c(-c3ncc4c(N5C[C@@H]6C[C@H](C5)[C@H](O)C6)nc(OC[C@@]56CCCN5C[C@H](F)C6)nc4c3F)c12 [Example 825, (1R,5R,6R)-3-(7-(5-ethyl-6-fluoro-1H-benzo[f]indazol-4-yl)-8-fluoro-2-(((2R,7aS)-2-fluorotetrahydro-1H-pyrrolizin-7a(5H)-yl)methoxy)pyrido[4,3-d]pyrimidin-4-yl)-3-azabicyclo[3.2.1]octan-6-ol] |
| 9 | < 2 | 30 | 44 | 74 | 51 | < 2 | 7 | 2390 | < 2 | 12 | CCc1c(F)ccc2cc(O)cc(-c3ncc4c(N5CCC[C@@](C)(O)C5)nc(OC[C@@]56CCCN5[C@H](COC)CC6)nc4c3F)c12 [Example 826, (R)-1-(7-(8-ethyl-7-fluoro-3-hydroxynaphthalen-1-yl)-8-fluoro-2-(((3S,7aS)-3-(methoxymethyl)tetrahydro-1H-pyrrolizin-7a(5H)-yl)methoxy)pyrido[4,3-d]pyrimidin-4-yl)-3-methylpiperidin-3-ol] |
| 68 | < 2 | 92 | 159 | 180 | 242 | < 2 | 41 | > 10000 | 3 | 67 | CCc1c(F)ccc2cc(O)cc(-c3ncc4c(N5CCC[C@@](C)(O)C5)nc(OCC56CC5CN(C)C6)nc4c3F)c12 (stereo partly drawn) [Example 827, (3R)-1-(7-(8-ethyl-7-fluoro-3-hydroxynaphthalen-1-yl)-8-fluoro-2-((3-methyl-3-azabicyclo[3.1.0]hexan-1-yl)methoxy)pyrido[4,3-d]pyrimidin-4-yl)-3-methylpiperidin-3-ol] |
